Test results reported in US20230242585A1, “IMMUNOMODULATORS” (Bristol-Myers Squibb Company, priority 2020, published 2023).
Starred links: 1 amine or outer side, 2 acyl side, 3 side chain; linkers in the order of their positions; H or OH if unused. Positions of bridges follow the written chain, without caps; N, C: chain ends. Non-standard residues stand in square brackets, D forms with d. Residues, ends and D or L forms follow the SMILES beside them. X27 = O=C([C@H](CNC[C@H](O)[C@@H](O)[C@H](O[C@@H]1O[C@H](CO)[C@H](O)[C@H](O)[C@H]1O)[C@H](O)CO)N[*:1])[*:2]; X43 = O=C([C@H](CNC[C@@H](O)[C@H](O)[C@@H](O)[C@@H](O)CO)N[*:1])[*:2]; X11 = O=C([C@H](CNC[C@H](O)[C@@H](O)[C@@H](O)[C@H](O)CO)N[*:1])[*:2]; X58 = O=C([C@H](CNC[C@H](O)[C@@H](O)[C@H](O)[C@H](O)CO)N[*:1])[*:2]; X32 = O=C([C@H](CCNC[C@@H](O)[C@H](O)[C@@H](O)CO)N[*:1])[*:2]; X31 = O=C([C@H](CNC[C@@H](O)[C@H](O)[C@@H](O)CO)N[*:1])[*:2]; X6 = O=C([C@H](CCNC[C@H](O)[C@@H](O)[C@H](O)CO)N[*:1])[*:2]; X5 = O=C([C@H](CNC[C@H](O)[C@@H](O)[C@H](O)CO)N[*:1])[*:2]; Trp(1-CH2COOH) = N[C@@H](Cc1cn(CC(=O)O)c2ccccc12)C(=O)O; Hyp = O=C(O)[C@@H]1C[C@@H](O)CN1; NMeNle = CCCC[C@H](NC)C(=O)O; NMeA = CN[C@@H](C)C(=O)O; Dab = NCC[C@H](N)C(=O)O

Target: T1, PD-1/PD-L1 (Homo sapiens, UniProt Q9NZQ7)
T1 construct: TVMV protease site (linker) (C); made in house; host or cells: HEK293T cells
Assay: PD-1/PD-L1 Homogenous Time-Resolved Fluorescence (HTRF) binding assay
Conditions: PD-L1-His 10 nM, PD-1-Ig 20 nM
Procedure, shortened: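 Compounds preincubated 15 min with PD-L1-His (residues 18-239, 10 nM) in dPBS with 0.1% BSA, 0.05% Tween-20, then PD-1-Ig (residues 25-167, 20 nM) for 15 min. Eu-cryptate anti-Ig (1 nM) and APC anti-His (20 nM) equilibrated 30 min; 665/620 nm ratio read, IC50 derived.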

T1 sequence (Q9NZQ7 18-239): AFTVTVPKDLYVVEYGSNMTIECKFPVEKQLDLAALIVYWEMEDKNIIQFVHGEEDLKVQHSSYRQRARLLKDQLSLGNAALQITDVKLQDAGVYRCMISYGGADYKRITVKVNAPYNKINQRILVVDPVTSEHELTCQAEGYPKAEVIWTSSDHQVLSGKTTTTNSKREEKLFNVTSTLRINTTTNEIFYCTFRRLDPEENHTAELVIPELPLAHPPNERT

| IC50 [nM] | Structure (SMILES) |
| --- | --- |
| 9.7 | CCCC[C@H]1C(=O)N(C)[C@@H](CCCC)C(=O)N[C@@H](CC(C)C)C(=O)N[C@H](C(=O)NCC(N)=O)CSCC(=O)N[C@@H](Cc2ccc(O)cc2)C(=O)N(C)[C@@H](C)C(=O)N[C@@H](CC(N)=O)C(=O)N2CCC[C@H]2C(=O)N[C@@H](CNC[C@H](O)[C@@H](O)[C@H](O[C@@H]2O[C@H](CO)[C@H](O)[C@H](O)[C@H]2O)[C@H](O)CO)C(=O)N[C@@H](CC(C)C)C(=O)N2C[C@H](O)C[C@H]2C(=O)N[C@@H](Cc2c[nH]c3ccccc23)C(=O)N[C@@H](CCN)C(=O)N[C@@H](Cc2cn(CC(=O)O)c3ccccc23)C(=O)N1C [Example 2013] ({CH2CO}-Y[NMeA]NP[X27]L[Hyp]W[Dab][Trp(1-CH2COOH)][NMeNle][NMeNle]LCG-NH2; thioether N-14) |
| 2.5 | CCCC[C@H]1C(=O)N(C)[C@@H](CCCC)C(=O)N[C@@H](CC(C)C)C(=O)N[C@H](C(=O)NCC(N)=O)CSCC(=O)N[C@@H](Cc2ccc(O)cc2)C(=O)N(C)[C@@H](C)C(=O)N[C@@H](CC(N)=O)C(=O)N2CCC[C@H]2C(=O)N[C@@H](CNC[C@H](O)[C@@H](O)[C@H](O)CO)C(=O)N[C@@H](CC(C)C)C(=O)N2C[C@H](O)C[C@H]2C(=O)N[C@@H](Cc2c[nH]c3ccccc23)C(=O)N[C@@H](CCNC[C@H](O)[C@@H](O)[C@H](O)CO)C(=O)N[C@@H](Cc2cn(CC(=O)O)c3ccccc23)C(=O)N1C [Example 2014] ({CH2CO}-Y[NMeA]NP[X5]L[Hyp]W[X6][Trp(1-CH2COOH)][NMeNle][NMeNle]LCG-NH2; thioether N-14) |
| 1.8 | CCCC[C@H]1C(=O)N(C)[C@@H](CCCC)C(=O)N[C@@H](CC(C)C)C(=O)N[C@H](C(=O)NCC(N)=O)CSCC(=O)N[C@@H](Cc2ccc(O)cc2)C(=O)N(C)[C@@H](C)C(=O)N[C@@H](CC(N)=O)C(=O)N2CCC[C@H]2C(=O)N[C@@H](CNC[C@H](O)[C@@H](O)[C@H](O)[C@H](O)CO)C(=O)N[C@@H](CC(C)C)C(=O)N2C[C@H](O)C[C@H]2C(=O)N[C@@H](Cc2c[nH]c3ccccc23)C(=O)N[C@@H](CCN)C(=O)N[C@@H](Cc2cn(CC(=O)O)c3ccccc23)C(=O)N1C [Example 2015] ({CH2CO}-Y[NMeA]NP[X58]L[Hyp]W[Dab][Trp(1-CH2COOH)][NMeNle][NMeNle]LCG-NH2; thioether N-14) |
| 2 | CCCC[C@H]1C(=O)N(C)[C@@H](CCCC)C(=O)N[C@@H](CC(C)C)C(=O)N[C@H](C(=O)NCC(N)=O)CSCC(=O)N[C@@H](Cc2ccc(O)cc2)C(=O)N(C)[C@@H](C)C(=O)N[C@@H](CC(N)=O)C(=O)N2CCC[C@H]2C(=O)N[C@@H](CNC[C@@H](O)[C@H](O)[C@@H](O)[C@@H](O)CO)C(=O)N[C@@H](CC(C)C)C(=O)N2C[C@H](O)C[C@H]2C(=O)N[C@@H](Cc2c[nH]c3ccccc23)C(=O)N[C@@H](CCN)C(=O)N[C@@H](Cc2cn(CC(=O)O)c3ccccc23)C(=O)N1C [Example 2016] ({CH2CO}-Y[NMeA]NP[X43]L[Hyp]W[Dab][Trp(1-CH2COOH)][NMeNle][NMeNle]LCG-NH2; thioether N-14) |
| 7.2 | CCCC[C@H]1C(=O)N(C)[C@@H](CCCC)C(=O)N[C@@H](CC(C)C)C(=O)N[C@H](C(=O)NCC(N)=O)CSCC(=O)N[C@@H](Cc2ccc(O)cc2)C(=O)N(C)[C@@H](C)C(=O)N[C@@H](CC(N)=O)C(=O)N2CCC[C@H]2C(=O)N[C@@H](CNC[C@H](O)[C@@H](O)[C@@H](O)[C@H](O)CO)C(=O)N[C@@H](CC(C)C)C(=O)N2C[C@H](O)C[C@H]2C(=O)N[C@@H](Cc2c[nH]c3ccccc23)C(=O)N[C@@H](CCN)C(=O)N[C@@H](Cc2cn(CC(=O)O)c3ccccc23)C(=O)N1C [Example 2017] ({CH2CO}-Y[NMeA]NP[X11]L[Hyp]W[Dab][Trp(1-CH2COOH)][NMeNle][NMeNle]LCG-NH2; thioether N-14) |
| 2.4 | CCCC[C@H]1C(=O)N(C)[C@@H](CCCC)C(=O)N[C@@H](CC(C)C)C(=O)N[C@H](C(=O)NCC(N)=O)CSCC(=O)N[C@@H](Cc2ccc(O)cc2)C(=O)N(C)[C@@H](C)C(=O)N[C@@H](CC(N)=O)C(=O)N2CCC[C@H]2C(=O)N[C@@H](CNC[C@@H](O)[C@H](O)[C@@H](O)CO)C(=O)N[C@@H](CC(C)C)C(=O)N2C[C@H](O)C[C@H]2C(=O)N[C@@H](Cc2c[nH]c3ccccc23)C(=O)N[C@@H](CCNC[C@@H](O)[C@H](O)[C@@H](O)CO)C(=O)N[C@@H](Cc2cn(CC(=O)O)c3ccccc23)C(=O)N1C [Example 2018] ({CH2CO}-Y[NMeA]NP[X31]L[Hyp]W[X32][Trp(1-CH2COOH)][NMeNle][NMeNle]LCG-NH2; thioether N-14) |
